Values belong to the compound of their own block, whether it stands above or below them.
Key:
KB (FR+) cells = assay: Cytotoxicity assay of CAR T cells in vitro (LDH release), KB; assay type: cell-based; details: KB (FR+) model, 100 nM conjugate; FIG. 3D
Experimental: (§1) In order to test cytotoxicity of CAR T cells with desired FITC-ligands, a standard lactate dehydrogenase (LDH) release assay was performed using a Pierce™ LDH cytotoxicity assay kit from ThermoFisher Scientific. To prepare samples for the LDH assay, cancer cells were seeded at a density of 10^4 cells/100 μL of media in each well of a 96 well plate and grown overnight. CAR T cells were prepared the next day at various numbers to have different effector (CAR T cell):target cell (cancer cell) ratios (e.g. E:T=20:1, 10:1, 5:1 and 1:1). FITC-ligands at various concentrations were introduced into each well and co-cultured for 6-24 hours. After co-incubation, the plate containing CAR T cells and cancer cells was centrifuged at 350×g at room temperature for 10 min to remove cell debris or remaining cells. 50 μL of the supernatants of each sample were then transferred into a new 96 well plate. 50 μL of the prepared LDH reaction mixture was added to the transferred 50 μL of each sample and incubated at room temperature for 30 min. 50 μL of stop solution was added and the absorbance of each sample was measured at 490 nm and 680 nm. The percent of cytotoxicity was calculated for each sample by using the equation below: % Cytotoxicity=(Experimental value−effector cells spontaneous−target cells spontaneous)/(Target cell maximum control−target cell spontaneous control)×100

LNCaP (PSMA+) cells = assay: Cytotoxicity assay of CAR T cells in vitro (LDH release), LNCaP; assay type: cell-based; details: LNCaP (PSMA+) model, E:T 10:1, 100 nM conjugate; FIG. 3B
Experimental: as §1

HEK293 (NK1R+) cells [1] = assay: Cytotoxicity assay of CAR T cells in vitro (LDH release), HEK293; assay type: cell-based; details: HEK293 (NK1R+) model, E:T 10:1, 100 nM conjugate; FIG. 3C
Experimental: as §1

HEK293 (NK1R+) cells [2] = assay: Anti-tumor efficacy of CAR T cells in vivo, HEK293 (NK1R+) xenograft; parameters: species or system mice
Experimental: (§2) Immunodeficient NSG mice (Jackson Laboratory) were used to identify the efficacy of CAR T cell anti-tumor activity in vivo. Each tumor-specific antigen expressing cancer cell line was subcutaneously injected into the shoulder of NSG mice to establish solid tumor xenografts. When tumor volume of around 50-100 mm^3 was reached, CAR T cells were introduced into mice bearing tumors and desired FITC-ligands were also introduced (i.v.) every other day. Control mice were administered PBS instead of FITC-ligands. Tumor volume and cytokine levels in the blood (IL2, IL6, IL10, IFNγ, and TNFα) were measured. General toxicity of the therapy was monitored by measuring weight loss. At the end of each treatment, mouse blood was collected to test for anemia, number of white blood cells and CAR T cell proliferation. Mouse organs were also evaluated.

MDA-MB-231 (FR+) cells = assay: Anti-tumor efficacy of CAR T cells in vivo, MDA-MB-231 (FR+) xenograft; parameters: species or system mice; details: during treatment, FIG. 7B
Experimental: as §2

MDA-MB-231(FR+) = assay: Two tumors on separate flanks of the same mouse, MDA-MB-231 tumor; assay type: in vivo, mice
Excerpt: (§3) In order to study whether same anti-FITC CAR T cell can eradicate mixture of heterogeneous cancer cells with cocktail of FITC-ligands, immunodeficient NSG mice (Jackson laboratory) were utilized for the in vivo study. Two different cancer cell lines (e.g. MDA-MB-231(FR+) and HEK(NK1R+)) were implanted into separate flanks on the same mouse. Then, anti-FITC CAR T cell (10^7 cells) was introduced by intravenous injection when tumor volumes reached about 50-100 mm^3. In addition, either a mixture of FITC-ligands (i.e. FITC-PEG12-Folate (500 nmole/kg) and FITC-PEG11-NK1R (500 nmole/kg)), single FITC-PEG11-NK-1R (500 nmole/kg) or PBS was introduced every other day by intravenous injection. The anti-tumor efficacy of CAR T cell with FITC-ligands was analyzed by measuring tumor volume at every other day.

HEK(NK1R+) = assay: Two tumors on separate flanks of the same mouse, HEK tumor; assay type: in vivo, mice
Excerpt: as §3

[3] = anti-FITC CAR T cell (10^7 cells) + both FITC-PEG11-NK1R and FITC-PEG12-Folate, 500 nmole/kg each, i.v. every other day, FIG. 19C
[4] = anti-FITC CAR T cell (10^7 cells) + only FITC-PEG11-NK1R 500 nmole/kg i.v. every other day, FIG. 19B

SMILES: O=C(O)CC[C@H](NC(=O)N[C@@H](CCC(=O)NCCCCCCCC(=O)N[C@@H](Cc1ccccc1)C(=O)N[C@@H](Cc1ccccc1)C(=O)NCCNC(=S)Nc1ccc(-c2c3ccc(=O)cc-3oc3cc(O)ccc23)c(C(=O)O)c1)C(=O)O)C(=O)O [FITC-DUPA]
CAR T cell cytotoxicity to tumor cells as a function of E:T ratio (KB (FR+) cells): a function of the E:T ratio | cytotoxicity of CAR T cells (activation) (LNCaP (PSMA+) cells): greater activation than using FITC-Folate or in the absence of a conjugate

blood indices (cytokine storm) (HEK293 (NK1R+) cells [2]; HEK-NK1R model, 500 nmoles/kg, FIG. 9): a cytokine storm had not occurred
SMILES: O=C(CN1CCC[C@H](OCc2cc(C(F)(F)F)cc(C(F)(F)F)c2)[C@@H]1c1ccccc1)NCCOCCOCCOCCOCCOCCOCCOCCOCCOCCOCCOCCNC(=S)Nc1ccc(-c2c3ccc(=O)cc-3oc3cc(O)ccc23)c(C(=O)O)c1 [FITC-PEG11-NK1]
cytotoxicity of CAR T cells (activation) (HEK293 (NK1R+) cells [1]): greater than activation using FITC-Folate or in the absence of a conjugate | tumor size (HEK293 (NK1R+) cells [2]; NSG mice, CAR T cells + conjugate 500 nmol/kg i.v. every other day, FIG. 5A): decreased | body weight (HEK293 (NK1R+) cells [2]; NSG mice, CAR T cells + conjugate, FIG. 5B): unchanged relative to the control mouse | harvested organs, indications of cytokine release syndrome (HEK293 (NK1R+) cells [2]; after two weeks of therapy, versus control group, FIGS. 6A-B): appeared normal in size with no indications of cytokine release syndrome | percentage of CAR T cells in human T cells (HEK293 (NK1R+) cells [2]; post CAR T cell injection along with conjugate, FIG. 5C): increased | body weight (MDA-MB-231 (FR+) cells): unchanged during treatment | MDA-MB-231 tumor volume (MDA-MB-231(FR+); [3]): eliminated | MDA-MB-231 tumor volume (MDA-MB-231(FR+); [4]): continued growing | HEK (NK1R) tumor volume (HEK(NK1R+); [3]): eliminated | HEK (NK1R) tumor volume (HEK(NK1R+); [4]): eradicated
